Laboratory results reported in PubChem BioAssay (NCI).
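Dose response: 5 concentrations. Exposure: 48 h. Format: 96-well plates. Endpoint: linear interpolation; highest concentration if not reached. GI50 is the concentration that inhibits growth by half. TGI denotes the concentration required for complete inhibition of growth.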

Columns and labels:
Assay in all cases: NCI anticancer screen, dose series, 48 h
HS 578T breast = test system: HS 578T breast
OVCAR-4 ovarian = test system: OVCAR-4 ovarian
SNB-75 CNS = test system: SNB-75 CNS
SK-MEL-2 melanoma = test system: SK-MEL-2 melanoma
CCRF-CEM leukemia = test system: CCRF-CEM leukemia
HCT-116 colon = test system: HCT-116 colon
T-47D breast = test system: T-47D breast
HOP-92 NSCLC = test system: HOP-92 NSCLC
NCI-H226 lung = test system: NCI-H226 lung
SK-MEL-5 melanoma = test system: SK-MEL-5 melanoma
NCI/ADR-RES ovarian = test system: NCI/ADR-RES ovarian
U251 CNS = test system: U251 CNS
MCF7 breast = test system: MCF7 breast
SK-OV-3 ovarian = test system: SK-OV-3 ovarian
SF-539 CNS = test system: SF-539 CNS
M14 melanoma = test system: M14 melanoma
DU-145 prostate = test system: DU-145 prostate
EKVX NSCLC = test system: EKVX NSCLC
MDA-MB-231 breast = test system: MDA-MB-231 breast
OVCAR-3 ovarian = test system: OVCAR-3 ovarian
NCI-H522 lung = test system: NCI-H522 lung
SR leukemia = test system: SR leukemia
HCC-2998 colon = test system: HCC-2998 colon
HOP-62 NSCLC = test system: HOP-62 NSCLC
A549 NSCLC = test system: A549 NSCLC
SK-MEL-28 melanoma = test system: SK-MEL-28 melanoma
COLO 205 colon = test system: COLO 205 colon
HCT-15 colon = test system: HCT-15 colon
KM12 colon = test system: KM12 colon
786-0 renal = test system: 786-0 renal
A498 renal = test system: A498 renal
MDA-MB-435 = test system: MDA-MB-435
OVCAR-5 ovarian = test system: OVCAR-5 ovarian
UACC-62 melanoma = test system: UACC-62 melanoma
SF-295 CNS = test system: SF-295 CNS
TK-10 renal = test system: TK-10 renal
HT29 colon = test system: HT29 colon
SF-268 CNS = test system: SF-268 CNS
CAKI-1 renal = test system: CAKI-1 renal
SNB-19 CNS = test system: SNB-19 CNS
LOX IMVI melanoma = test system: LOX IMVI melanoma
IGROV1 ovarian = test system: IGROV1 ovarian
RPMI-8226 leukemia = test system: RPMI-8226 leukemia
K-562 leukemia = test system: K-562 leukemia
PC-3 prostate = test system: PC-3 prostate
BT-549 breast = test system: BT-549 breast
MOLT-4 leukemia = test system: MOLT-4 leukemia
UO-31 renal = test system: UO-31 renal
UACC-257 melanoma = test system: UACC-257 melanoma
SW-620 colon = test system: SW-620 colon
HL-60(TB) leukemia = test system: HL-60(TB) leukemia
NCI-H23 lung = test system: NCI-H23 lung
ACHN renal = test system: ACHN renal
NCI-H460 lung = test system: NCI-H460 lung
OVCAR-8 ovarian = test system: OVCAR-8 ovarian
SN12C renal = test system: SN12C renal
MALME-3M melanoma = test system: MALME-3M melanoma

COc1cc(CC2C(=O)NC(=O)NC2=O)ccc1OCc1ccccc1
GI50 (HS 578T breast): 91.3 µg/mL | GI50 (OVCAR-4 ovarian): 59.8 µg/mL | GI50 (SNB-75 CNS): 38 µg/mL

Nc1ccc(/C=N/Nc2ccnc3c(N)cccc23)c2cccnc12
GI50 (SK-MEL-2 melanoma): 1.7 µM | TGI (SK-MEL-2 melanoma): 3.25 µM | GI50 (CCRF-CEM leukemia): 0.316 µM | TGI (CCRF-CEM leukemia): 2.31 µM | GI50 (HCT-116 colon): 0.401 µM | TGI (HCT-116 colon): 1.85 µM | GI50 (T-47D breast): 2.27 µM | TGI (T-47D breast): 5.02 µM | GI50 (HS 578T breast): 2.04 µM | TGI (HS 578T breast): 4.62 µM | GI50 (HOP-92 NSCLC): 1.58 µM | TGI (HOP-92 NSCLC): 3.14 µM | GI50 (NCI-H226 lung): 4.12 µM | TGI (NCI-H226 lung): 20.8 µM | GI50 (SK-MEL-5 melanoma): 1.78 µM | TGI (SK-MEL-5 melanoma): 3.19 µM | GI50 (NCI/ADR-RES ovarian): 1.93 µM | TGI (NCI/ADR-RES ovarian): 4.41 µM | GI50 (U251 CNS): 1.61 µM | TGI (U251 CNS): 3.09 µM | GI50 (MCF7 breast): 1.48 µM | TGI (MCF7 breast): 3.12 µM | GI50 (SK-OV-3 ovarian): 1.82 µM | TGI (SK-OV-3 ovarian): 3.3 µM | GI50 (SF-539 CNS): 1.74 µM | TGI (SF-539 CNS): 3.15 µM | GI50 (M14 melanoma): 1.87 µM | TGI (M14 melanoma): 3.49 µM | GI50 (OVCAR-4 ovarian): 1.54 µM | TGI (OVCAR-4 ovarian): 3.35 µM | GI50 (DU-145 prostate): 1.68 µM | TGI (DU-145 prostate): 3.13 µM | GI50 (EKVX NSCLC): 1.63 µM | TGI (EKVX NSCLC): 3.34 µM | GI50 (MDA-MB-231 breast): 1.6 µM | TGI (MDA-MB-231 breast): 3.15 µM | GI50 (OVCAR-3 ovarian): 1.63 µM | TGI (OVCAR-3 ovarian): 3.16 µM | GI50 (NCI-H522 lung): 1.84 µM | TGI (NCI-H522 lung): 3.62 µM | GI50 (SR leukemia): 0.0336 µM | TGI (SR leukemia): 0.153 µM | GI50 (HCC-2998 colon): 1.81 µM | TGI (HCC-2998 colon): 3.3 µM | GI50 (HOP-62 NSCLC): 1.81 µM | TGI (HOP-62 NSCLC): 3.53 µM | GI50 (A549 NSCLC): 1.68 µM | TGI (A549 NSCLC): 3.24 µM | GI50 (SK-MEL-28 melanoma): 1.87 µM | TGI (SK-MEL-28 melanoma): 3.51 µM | GI50 (COLO 205 colon): 1.78 µM | TGI (COLO 205 colon): 3.46 µM | GI50 (HCT-15 colon): 1.34 µM | TGI (HCT-15 colon): 2.9 µM | GI50 (KM12 colon): 1.7 µM | TGI (KM12 colon): 3.49 µM | GI50 (786-0 renal): 1.59 µM | TGI (786-0 renal): 3.04 µM | GI50 (SNB-75 CNS): 1.74 µM | TGI (SNB-75 CNS): 3.35 µM | GI50 (A498 renal): 1.79 µM | TGI (A498 renal): 3.3 µM | GI50 (MDA-MB-435): 1.64 µM | TGI (MDA-MB-435): 3.16 µM | GI50 (OVCAR-5 ovarian): 1.86 µM | TGI (OVCAR-5 ovarian): 3.44 µM | GI50 (UACC-62 melanoma): 1.73 µM | TGI (UACC-62 melanoma): 3.37 µM | GI50 (SF-295 CNS): 1.57 µM | TGI (SF-295 CNS): 3 µM | GI50 (TK-10 renal): 1.96 µM | TGI (TK-10 renal): 3.56 µM | GI50 (HT29 colon): 1.92 µM | TGI (HT29 colon): 3.47 µM

COc1cc(-n2cc(-c3ccc(Cl)cc3)[nH]c2=O)cc(OC)c1OC
GI50 (SF-268 CNS): 30.4 µM | TGI (SF-268 CNS): 88.6 µM | GI50 (CAKI-1 renal): 16.2 µM | TGI (CAKI-1 renal): 35.6 µM | GI50 (SNB-19 CNS): 32.6 µM | TGI (SNB-19 CNS): > 100 µM | GI50 (SK-MEL-2 melanoma): 72.6 µM | TGI (SK-MEL-2 melanoma): > 100 µM | GI50 (LOX IMVI melanoma): 59.9 µM | TGI (LOX IMVI melanoma): > 100 µM | GI50 (HCT-116 colon): 35.4 µM | TGI (HCT-116 colon): > 100 µM | GI50 (HS 578T breast): 76.6 µM | TGI (HS 578T breast): > 100 µM | GI50 (IGROV1 ovarian): 35.5 µM | TGI (IGROV1 ovarian): > 100 µM | GI50 (RPMI-8226 leukemia): 12.6 µM | TGI (RPMI-8226 leukemia): > 100 µM | GI50 (K-562 leukemia): > 100 µM | TGI (K-562 leukemia): > 100 µM | GI50 (NCI-H226 lung): 33.2 µM | TGI (NCI-H226 lung): 83.3 µM | GI50 (PC-3 prostate): 16.4 µM | TGI (PC-3 prostate): 51.2 µM | GI50 (BT-549 breast): 27.1 µM | TGI (BT-549 breast): 71.8 µM | GI50 (MOLT-4 leukemia): > 100 µM | TGI (MOLT-4 leukemia): > 100 µM | GI50 (SK-MEL-5 melanoma): 31.1 µM | TGI (SK-MEL-5 melanoma): > 100 µM | GI50 (NCI/ADR-RES ovarian): 23.1 µM | TGI (NCI/ADR-RES ovarian): 63.6 µM | GI50 (U251 CNS): 20.9 µM | TGI (U251 CNS): 45.1 µM | GI50 (UO-31 renal): 22.5 µM | TGI (UO-31 renal): 64.4 µM | GI50 (MCF7 breast): 35 µM | TGI (MCF7 breast): > 100 µM | GI50 (UACC-257 melanoma): 46.8 µM | TGI (UACC-257 melanoma): > 100 µM | GI50 (SK-OV-3 ovarian): 35.8 µM | TGI (SK-OV-3 ovarian): 93 µM | GI50 (SF-539 CNS): 23.8 µM | TGI (SF-539 CNS): 49.2 µM | GI50 (M14 melanoma): 94.1 µM | TGI (M14 melanoma): > 100 µM | GI50 (OVCAR-4 ovarian): 25.9 µM | TGI (OVCAR-4 ovarian): 62.9 µM | GI50 (DU-145 prostate): 57.4 µM | TGI (DU-145 prostate): > 100 µM | GI50 (SW-620 colon): > 100 µM | TGI (SW-620 colon): > 100 µM | GI50 (EKVX NSCLC): 34.1 µM | TGI (EKVX NSCLC): > 100 µM | GI50 (MDA-MB-231 breast): 23.1 µM | TGI (MDA-MB-231 breast): 55.4 µM | GI50 (HL-60(TB) leukemia): > 100 µM | TGI (HL-60(TB) leukemia): > 100 µM | GI50 (OVCAR-3 ovarian): 21 µM | TGI (OVCAR-3 ovarian): 50.1 µM | GI50 (NCI-H522 lung): 19.9 µM | TGI (NCI-H522 lung): 54 µM | GI50 (SR leukemia): > 100 µM | TGI (SR leukemia): > 100 µM | GI50 (HCC-2998 colon): 47.4 µM | TGI (HCC-2998 colon): > 100 µM | GI50 (NCI-H23 lung): 49.5 µM | TGI (NCI-H23 lung): > 100 µM | GI50 (ACHN renal): 21.6 µM | TGI (ACHN renal): 46 µM | GI50 (HOP-62 NSCLC): 30.8 µM | TGI (HOP-62 NSCLC): 78.8 µM | GI50 (A549 NSCLC): 34.6 µM | TGI (A549 NSCLC): > 100 µM | GI50 (NCI-H460 lung): 39.6 µM | TGI (NCI-H460 lung): > 100 µM | GI50 (SK-MEL-28 melanoma): > 100 µM | TGI (SK-MEL-28 melanoma): > 100 µM | GI50 (OVCAR-8 ovarian): 26.5 µM | TGI (OVCAR-8 ovarian): 68.9 µM | GI50 (COLO 205 colon): > 100 µM | TGI (COLO 205 colon): > 100 µM | GI50 (HCT-15 colon): > 100 µM | TGI (HCT-15 colon): > 100 µM | GI50 (KM12 colon): 41.3 µM | TGI (KM12 colon): > 100 µM | GI50 (786-0 renal): 15.2 µM | TGI (786-0 renal): 35.3 µM | GI50 (SNB-75 CNS): 26.2 µM | TGI (SNB-75 CNS): 50.5 µM | GI50 (SN12C renal): 37.7 µM | TGI (SN12C renal): > 100 µM | GI50 (A498 renal): 19.8 µM | TGI (A498 renal): 44.8 µM | GI50 (MDA-MB-435): 88.4 µM | TGI (MDA-MB-435): > 100 µM | GI50 (OVCAR-5 ovarian): 22.7 µM | TGI (OVCAR-5 ovarian): 54.1 µM | GI50 (UACC-62 melanoma): 23 µM | TGI (UACC-62 melanoma): 64.1 µM | GI50 (SF-295 CNS): 30.9 µM | TGI (SF-295 CNS): > 100 µM | GI50 (MALME-3M melanoma): 32 µM | TGI (MALME-3M melanoma): 77.4 µM | GI50 (TK-10 renal): 18.5 µM | TGI (TK-10 renal): 42.8 µM | GI50 (HT29 colon): 43.8 µM | TGI (HT29 colon): > 100 µM

Nc1ncnc2c1ncn2CC(CO)CC(c1ccccc1)P(=O)(O)O (stereo unspecified)
TGI (M14 melanoma): 1.64 µM
